The values below are quoted from earlier work in article PMC7594070, “N-Alkylated Iminosugar Based Ligands: Synthesis and Inhibition of Human Lysosomal β-Glucocerebrosidase” (Molecules, 2020).

Where two headings read alike, the source gives them in different places.

The target of the data set is GCase. The following applies: cited from earlier work.

For `CC[C@@H]1[C@H](O)[C@@H](O)[C@H](O)CN1CCCCCC(=O)OC` [Compound 19], the Ki (read-out: Ki GCase) is 57 µM.
For `OC[C@@H]1[C@@H](O)[C@H](O)[C@@H](O)CN1CCCCCCCCCn1cc(COCC(COCc2cn(CCCCCCCCCN3C[C@H](O)[C@@H](O)[C@H](O)[C@H]3CO)nn2)(COCc2cn(CCCCCCCCCN3C[C@H](O)[C@@H](O)[C@H](O)[C@H]3CO)nn2)COCc2cn(CCCCCCCCCN3C[C@H](O)[C@@H](O)[C@H](O)[C@H]3CO)nn2)nn1` [Compound 17], the Ki (read-out: Ki GCase inhibition, multivalent iminosugars) was 0.055 µM.

The term Ki denotes a dissociation constant, usually derived from enzyme kinetics or from competition with a known ligand.
